Measured values from US9511341B2, “Method for preparing acetazolamide sodium powder” (SCI Pharmtech, Inc., priority 2013, dated 2016).

Assays:
[1] = Impurity D (hydrolysis product) in spray dried powder by USP HPLC method; assay type: physicochemical; conditions: air vs N2 as drying gas, judged by difference of impurity D
Description: In the developed spray drying process, the spray dryer was initiated in the preferred conditions (such as temperature and flow rate of the heated gas, and pneumatic pressure). In the meantime, an acetazolamide sodium solution was prepared by dispersing the acetazolamide powder into water in a flask inerted with N2 and then mixing the acetazolamide suspension with sodium hydroxide solution. After stirring for 15 min, an acetazolamide sodium solution was obtained and pumped into the spray dryer to proceed the drying process. During the drying process, the acetazolamide sodium solution was fed and atomized into mist by a two-fluid nozzle, and then the water was rapidly vaporized and accompanied with the nucleation of acetazolamide sodium particles in the gas flow of drying chamber. The formed particles were immediately carried into the cyclone, in which the separation of gas-solid was performed. The uncollected particles were recovered by the wet scrubber connected to the exit of cyclone. Finally, the acetazolamide sodium powder in the collector was examined by a halogen moisture analyzer and an analytical HPLC method specified in the current USP monograph of acetazolamide for injection.
In Example 2, the amount of impurity D in the acetazolamide free base was about 0.098-0.110 wt %. […]

[2] = cited from earlier work

Row | Oxygen sensitivity during spray drying [1] | Compound | Solubility in water [2]
1 | not oxygen-sensitive | CC(=O)Nc1nnc(S(N)(=O)=O)s1 [acetazolamide sodium powder, Acetazolamide sodium] | easily dissolves in water
2 |  | CC(=O)Nc1nnc(S(N)(=O)=O)s1 [acetazolamide] | extremely low solubility in water
